Reference: PubChem BioAssay AID1963451 (Molecular Pharmacology Branch, DTP, NCI, 2024)
One block for each compound: values may come before it.

Tested on: 521955-158-R6-J3-PDC complex spheroid growth, % test/control
Experiment: Anticancer human tumor 521955-158-R6-J3-PDC patient-derived pancreatic carcinoma cell line growth inhibition [Asc]
Conditions: for IC50: curve of first compound; for viability, T/C: stronger effect = lower value
How it was run: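 Complex spheroids combining tumor cells with HUVEC endothelial cells and human MSCs, at 37 degrees C, 5% CO2; agents tested alone or combined, half-log dilutions from at or near clinical Cmax, or 10 microM if Cmax unknown.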

[1] = second compound 0.0316 µM, first compound 0.0316 µM
[2] = second compound 0.0316 µM, first compound 0.1 µM
[3] = second compound 0.0316 µM, first compound 0.316 µM
[4] = second compound 0.0316 µM, first compound 1 µM
[5] = second compound 0.1 µM, first compound 0.0316 µM
[6] = second compound 0.1 µM, first compound 0.1 µM
[7] = second compound 0.1 µM, first compound 0.316 µM
[8] = second compound 0.1 µM, first compound 1 µM
[9] = second compound 0.316 µM, first compound 0.0316 µM
[10] = second compound 0.316 µM, first compound 0.1 µM
[11] = second compound 0.316 µM, first compound 0.316 µM
[12] = second compound 0.316 µM, first compound 1 µM
[13] = second compound 1 µM, first compound 0.0316 µM
[14] = second compound 1 µM, first compound 0.1 µM
[15] = second compound 1 µM, first compound 0.316 µM
[16] = second compound 1 µM, first compound 1 µM
[17] = second compound 3.16 µM, first compound 0.0316 µM
[18] = second compound 3.16 µM, first compound 0.1 µM
[19] = second compound 3.16 µM, first compound 0.316 µM
[20] = second compound 3.16 µM, first compound 1 µM
[21] = second compound 10 µM, first compound 0.0316 µM
[22] = second compound 10 µM, first compound 0.1 µM
[23] = second compound 10 µM, first compound 0.316 µM
[24] = second compound 10 µM, first compound 1 µM
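Also: spheroids exposed to compounds for 7 days.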
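For viability, T/C in this document: 100% = DMSO vehicle control wells.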

- IC50 (second compound 0.0316 µM): > 300 nM
- IC50 (second compound 0.1 µM): > 300 nM
- IC50 (second compound 0.316 µM): > 300 nM
- IC50 (second compound 1 µM): < 0.949 nM
- IC50 (second compound 3.16 µM): < 0.949 nM
- IC50 (second compound 10 µM): < 0.949 nM
Structure (SMILES): NC(=O)C(=Cn1cnc(-c2cc(C(F)(F)F)cc(C(F)(F)F)c2)n1)c1cncnc1 + Cc1c(S(C)(=O)=O)c(-c2cc(F)cc(N3CCN(c4ccc(NS(=O)(=O)c5ccc(NC(CCN6CCC(C(=O)OCCCP(=O)(O)O)CC6)CSc6ccccc6)c(S(=O)(=O)C(F)(F)F)c5)cc4)CC3)c2)c(-c2ccc(Cl)cc2)n1C(C)C
- viability, T/C (second compound 0.0316 µM, first compound 0.000949 µM): 95%
- viability, T/C (second compound 0.0316 µM, first compound 0.003 µM): 97.1%
- viability, T/C (second compound 0.0316 µM, first compound 0.00949 µM): 60.6%
- viability, T/C (second compound 0.0316 µM, first compound 0.03 µM): 82.1%
- viability, T/C (second compound 0.0316 µM, first compound 0.0949 µM): 103%
- viability, T/C (second compound 0.0316 µM, first compound 0.3 µM): 108%
- viability, T/C (second compound 0.1 µM, first compound 0.000949 µM): 84%
- viability, T/C (second compound 0.1 µM, first compound 0.003 µM): 90.4%
- viability, T/C (second compound 0.1 µM, first compound 0.00949 µM): 70.9%
- viability, T/C (second compound 0.1 µM, first compound 0.03 µM): 62.1%
- viability, T/C (second compound 0.1 µM, first compound 0.0949 µM): 89.3%
- viability, T/C (second compound 0.1 µM, first compound 0.3 µM): 85.9%
- viability, T/C (second compound 0.316 µM, first compound 0.000949 µM): 70.3%
- viability, T/C (second compound 0.316 µM, first compound 0.003 µM): 49%
- viability, T/C (second compound 0.316 µM, first compound 0.00949 µM): 47.2%
- viability, T/C (second compound 0.316 µM, first compound 0.03 µM): 47.5%
- viability, T/C (second compound 0.316 µM, first compound 0.0949 µM): 69.6%
- viability, T/C (second compound 0.316 µM, first compound 0.3 µM): 43.5%
- viability, T/C (second compound 1 µM, first compound 0.000949 µM): 47.1%
- viability, T/C (second compound 1 µM, first compound 0.003 µM): 30.3%
- viability, T/C (second compound 1 µM, first compound 0.00949 µM): 34.6%
- viability, T/C (second compound 1 µM, first compound 0.03 µM): 33%
- viability, T/C (second compound 1 µM, first compound 0.0949 µM): 43.8%
- viability, T/C (second compound 1 µM, first compound 0.3 µM): 18.4%
- viability, T/C (second compound 3.16 µM, first compound 0.000949 µM): 19.8%
- viability, T/C (second compound 3.16 µM, first compound 0.003 µM): 21.9%
- viability, T/C (second compound 3.16 µM, first compound 0.00949 µM): 22.6%
- viability, T/C (second compound 3.16 µM, first compound 0.03 µM): 20.9%
- viability, T/C (second compound 3.16 µM, first compound 0.0949 µM): 16.2%
- viability, T/C (second compound 3.16 µM, first compound 0.3 µM): 5.69%
- viability, T/C (second compound 10 µM, first compound 0.000949 µM): 12.2%
- viability, T/C (second compound 10 µM, first compound 0.003 µM): 16.9%
- viability, T/C (second compound 10 µM, first compound 0.00949 µM): 11.6%
- viability, T/C (second compound 10 µM, first compound 0.03 µM): 10.2%
- viability, T/C (second compound 10 µM, first compound 0.0949 µM): 9.2%
- viability, T/C (second compound 10 µM, first compound 0.3 µM): 0.76%

- IC50 (second compound 0.0316 µM): 3740 nM
- IC50 (second compound 0.1 µM): 1000 nM
- IC50 (second compound 0.316 µM): 111 nM
- IC50 (second compound 1 µM): < 31.6 nM
- IC50 (second compound 3.16 µM): < 31.6 nM
- IC50 (second compound 10 µM): < 31.6 nM
Structure (SMILES): C=C(F)C(=O)N1CCN(c2nc(OCC3CCCN3C)nc3c2CCN(c2cccc4cccc(Cl)c24)C3)CC1CC#N (stereo unspecified) + Cc1c(S(C)(=O)=O)c(-c2cc(F)cc(N3CCN(c4ccc(NS(=O)(=O)c5ccc(NC(CCN6CCC(C(=O)OCCCP(=O)(O)O)CC6)CSc6ccccc6)c(S(=O)(=O)C(F)(F)F)c5)cc4)CC3)c2)c(-c2ccc(Cl)cc2)n1C(C)C
- viability, T/C [1]: 79.3%
- viability, T/C [2]: 79.6%
- viability, T/C [3]: 73.5%
- viability, T/C [4]: 73.3%
- viability, T/C (second compound 0.0316 µM, first compound 3.16 µM): 59.1%
- viability, T/C (second compound 0.0316 µM, first compound 10 µM): 0.31%
- viability, T/C [5]: 80.3%
- viability, T/C [6]: 65.3%
- viability, T/C [7]: 58.5%
- viability, T/C [8]: 47.1%
- viability, T/C (second compound 0.1 µM, first compound 3.16 µM): 39.6%
- viability, T/C (second compound 0.1 µM, first compound 10 µM): 0.27%
- viability, T/C [9]: 57.9%
- viability, T/C [10]: 49.6%
- viability, T/C [11]: 37.9%
- viability, T/C [12]: 36.9%
- viability, T/C (second compound 0.316 µM, first compound 3.16 µM): 23.3%
- viability, T/C (second compound 0.316 µM, first compound 10 µM): 0.26%
- viability, T/C [13]: 40.1%
- viability, T/C [14]: 34.3%
- viability, T/C [15]: 28.4%
- viability, T/C [16]: 17.8%
- viability, T/C (second compound 1 µM, first compound 3.16 µM): 8.04%
- viability, T/C (second compound 1 µM, first compound 10 µM): 0.21%
- viability, T/C [17]: 18.4%
- viability, T/C [18]: 16.9%
- viability, T/C [19]: 15.8%
- viability, T/C [20]: 10%
- viability, T/C (second compound 3.16 µM, first compound 3.16 µM): 0.82%
- viability, T/C (second compound 3.16 µM, first compound 10 µM): 0.2%
- viability, T/C [21]: 13.4%
- viability, T/C [22]: 18.4%
- viability, T/C [23]: 21.8%
- viability, T/C [24]: 9.59%
- viability, T/C (second compound 10 µM, first compound 3.16 µM): 0.77%
- viability, T/C (second compound 10 µM, first compound 10 µM): 0.15%

- IC50 (second compound 0.0316 µM): > 1000 nM
- IC50 (second compound 0.1 µM): > 1000 nM
- IC50 (second compound 0.316 µM): < 3.16 nM
- IC50 (second compound 1 µM): < 3.16 nM
- IC50 (second compound 3.16 µM): < 3.16 nM
- IC50 (second compound 10 µM): < 3.16 nM
Structure (SMILES): CCN1CCN(Cc2ccc(Nc3ncc(F)c(-c4cc(F)c5nc(C)n(C(C)C)c5c4)n3)nc2)CC1 + Cc1c(S(C)(=O)=O)c(-c2cc(F)cc(N3CCN(c4ccc(NS(=O)(=O)c5ccc(NC(CCN6CCC(C(=O)OCCCP(=O)(O)O)CC6)CSc6ccccc6)c(S(=O)(=O)C(F)(F)F)c5)cc4)CC3)c2)c(-c2ccc(Cl)cc2)n1C(C)C
- viability, T/C (second compound 0.0316 µM, first compound 0.00316 µM): 96.2%
- viability, T/C (second compound 0.0316 µM, first compound 0.01 µM): 81%
- viability, T/C [1]: 73.6%
- viability, T/C [2]: 71.9%
- viability, T/C [3]: 67.6%
- viability, T/C [4]: 84.4%
- viability, T/C (second compound 0.1 µM, first compound 0.00316 µM): 72.3%
- viability, T/C (second compound 0.1 µM, first compound 0.01 µM): 57.5%
- viability, T/C [5]: 62%
- viability, T/C [6]: 63.1%
- viability, T/C [7]: 82.1%
- viability, T/C [8]: 73.5%
- viability, T/C (second compound 0.316 µM, first compound 0.00316 µM): 53%
- viability, T/C (second compound 0.316 µM, first compound 0.01 µM): 49%
- viability, T/C [9]: 43.9%
- viability, T/C [10]: 53.6%
- viability, T/C [11]: 49.4%
- viability, T/C [12]: 53.9%
- viability, T/C (second compound 1 µM, first compound 0.00316 µM): 35.6%
- viability, T/C (second compound 1 µM, first compound 0.01 µM): 39.1%
- viability, T/C [13]: 29.4%
- viability, T/C [14]: 37.3%
- viability, T/C [15]: 34.2%
- viability, T/C [16]: 41.1%
- viability, T/C (second compound 3.16 µM, first compound 0.00316 µM): 21.4%
- viability, T/C (second compound 3.16 µM, first compound 0.01 µM): 18.7%
- viability, T/C [17]: 18.4%
- viability, T/C [18]: 19.4%
- viability, T/C [19]: 24.2%
- viability, T/C [20]: 26.1%
- viability, T/C (second compound 10 µM, first compound 0.00316 µM): 30.4%
- viability, T/C (second compound 10 µM, first compound 0.01 µM): 16.3%
- viability, T/C [21]: 15%
- viability, T/C [22]: 15.2%
- viability, T/C [23]: 26.6%
- viability, T/C [24]: 28.9%
